Laboratory results taken from patent publication US6706663B2, “Herbicidal 3-heterocyclic substituted benzisothiazole and benzisoxazole compounds” (Wyeth, priority 2000, dated 2004).

Tests used:
[1] = system: ABUTH (Abutilon theophrasti); assay: Postemergence herbicidal evaluation; assay type: in vivo, Medic.
In short: (§1)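 Seedlings grown for about two weeks were sprayed postemergence and then kept under standard greenhouse care. Injury was rated visually 4–5 weeks after treatment on a 0–9 scale against untreated controls, and ratings from repeat tests were averaged.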

[2] = system: GALAP (Galium aparine); assay: Postemergence herbicidal evaluation; assay type: in vivo
In short: as §1

[3] = system: IPOHE (Ipomoea hederacea); assay: Postemergence herbicidal evaluation; assay type: in vivo, (L.) Jacq.
In short: as §1

[4] = system: SETVI (Setaria viridis); assay: Postemergence herbicidal evaluation; assay type: in vivo, (L.) Beau
In short: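 Ratings use a 0-9 visual scale covering stand, vigor, malformation, size, chlorosis and appearance versus a control, scored 4-5 weeks post-spray. Roughly two-week-old seedlings received about 0.0040-1.000 kg/ha active, applied in 50/50 acetone/water with 0.5% TWEEN 20. Multiple tests per compound were averaged.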

[5] = system: GLXMAW (Soybean, Williams); assay: Postemergence herbicidal evaluation; assay type: in vivo, Glycine max, (L.) Merr. cv Williams
In short: as §1

[6] = system: TRZAWR (Wheat, Winter, cv Riband); assay: Postemergence herbicidal evaluation; assay type: in vivo, Triticum aestivum
In short: as §1

[7] = system: ABUTH (Abutilon theophrasti); assay: Preemergence herbicidal evaluation; assay type: in vivo, Medic.; settings: rated 4-5 weeks after treatment
[8] = system: AMBEL (Ambrosia artemisifolia); assay: Preemergence herbicidal evaluation; assay type: in vivo, L.; settings: rated 4-5 weeks after treatment
In short: (§2)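 Greenhouse preemergence test: freshly planted cups were sprayed once with an aqueous acetone solution of compound. Injury was judged visually on a 0–9 scale relative to a control, four to five weeks later.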

[9] = system: CASOB (Cassia obtusifolia); assay: Preemergence herbicidal evaluation; assay type: in vivo, L.; settings: rated 4-5 weeks after treatment
In short: as §2

[10] = system: CHEAL (Chenopodium album); assay: Preemergence herbicidal evaluation; assay type: in vivo, L.; settings: rated 4-5 weeks after treatment
In short: as §2

[11] = system: GALAP (Galium aparine); assay: Preemergence herbicidal evaluation; assay type: in vivo; settings: rated 4-5 weeks after treatment
In short: as §2

[12] = system: ECHCG (Echinochloa crus-galli); assay: Preemergence herbicidal evaluation; assay type: in vivo, (L.) Beau; settings: rated 4-5 weeks after treatment
In short: as §2

[13] = system: SETVI (Setaria viridis); assay: Preemergence herbicidal evaluation; assay type: in vivo, (L.) Beau; settings: rated 4-5 weeks after treatment
In short: as §2

[14] = system: ZEAMX (Corn, Field); assay: Preemergence herbicidal evaluation; assay type: in vivo, Zea mays, L.; settings: rated 4-5 weeks after treatment
[15] = system: CYPSE (Cyperus serotinus); assay: Flooded paddy, preemergence weed control; assay type: in vivo, Rottb.; settings: rated 3-4 weeks after treatment, 0-9 rating scale
In short: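 Seeds or propagules were planted 0.5 cm deep in silt loam and flooded to 1.5–3 cm. Compounds in 50/50 v/v aqueous/acetone were pipetted into the flood water at about 0.0080 to 0.1250 kg/ha. After 3–4 weeks in the greenhouse, effect was rated visually on a 0–9 scale versus untreated control.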

[16] = system: MOOVA (Monochoria vaginalis); assay: Flooded paddy, preemergence weed control; assay type: in vivo, Presl.; settings: rated 3-4 weeks after treatment, 0-9 rating scale
In short: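 Greenhouse paddy test, preemergence. Seeds planted in the top 0.5 cm of silt loam soil, which remained flooded at 1.5–3 cm depth. Scored 0-9 by visual comparison with control.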

[17] = system: ORYSAT (Rice, Tebonnet); assay: Flooded paddy, post-transplant rice tolerance; assay type: in vivo, Oryza sativa, (L.) Tebonnet; settings: flooded paddy, post-transplant rice, rated 3-4 weeks after treatment, 0-9 rating scale
In short: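 Ten-day-old seedlings, 2/pot, silt loam; flood kept 1.5–3 cm over soil; herbicide applied post-transplant; greenhouse; score 0–9 visual vs control.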

## Cc1ccc(-c2nsc3ccc(-n4c(=O)cc(C(F)(F)F)n(C)c4=O)cc23)nc1 [Compound 42, 1-methyl-3-[3-(5-methyl-2-pyridyl)-1,2-benzisothiazol-5-yl]-6-(trifluoromethyl)uracil]
[1]; rate 0.0320 kg/ha
  Postemergence herbicidal rating, ABUTH: 9.0
[1]; rate 0.0620 kg/ha
  Postemergence herbicidal rating, ABUTH: 9.0
[1]; rate 0.1250 kg/ha
  Postemergence herbicidal rating, ABUTH: 9.0
[2]; rate 0.0320 kg/ha
  Postemergence herbicidal rating, GALAP: 1.0
[2]; rate 0.0620 kg/ha
  Postemergence herbicidal rating, GALAP: 3.0
[2]; rate 0.1250 kg/ha
  Postemergence herbicidal rating, GALAP: 3.0
[3]; rate 0.0320 kg/ha
  Postemergence herbicidal rating, IPOHE: 9.0
[3]; rate 0.0620 kg/ha
  Postemergence herbicidal rating, IPOHE: 9.0
[3]; rate 0.1250 kg/ha
  Postemergence herbicidal rating, IPOHE: 9.0
[4]; rate 0.0320 kg/ha
  Postemergence herbicidal rating, SETVI: 5.0
[4]; rate 0.0620 kg/ha
  Postemergence herbicidal rating, SETVI: 5.0
[4]; rate 0.1250 kg/ha
  Postemergence herbicidal rating, SETVI: 9.0
[5]; rate 0.0320 kg/ha
  Postemergence herbicidal rating, GLXMAW: 6.0
[5]; rate 0.0620 kg/ha
  Postemergence herbicidal rating, GLXMAW: 8.0
[5]; rate 0.1250 kg/ha
  Postemergence herbicidal rating, GLXMAW: 8.0
[6]; rate 0.0320 kg/ha
  Postemergence herbicidal rating, TRZAWR: 4.0
[6]; rate 0.0620 kg/ha
  Postemergence herbicidal rating, TRZAWR: 5.0
[6]; rate 0.1250 kg/ha
  Postemergence herbicidal rating, TRZAWR: 5.0
[7]; Rate 0.0620 kg/ha
  Preemergence herbicidal rating ABUTH: 2.0
[7]; Rate 0.1250 kg/ha
  Preemergence herbicidal rating ABUTH: 6.5
[7]; Rate 0.2500 kg/ha
  Preemergence herbicidal rating ABUTH: 9.0
[8]; Rate 0.0620 kg/ha
  Preemergence herbicidal rating AMBEL: 1.0
[8]; Rate 0.1250 kg/ha
  Preemergence herbicidal rating AMBEL: 4.5
[8]; Rate 0.2500 kg/ha
  Preemergence herbicidal rating AMBEL: 9.0
[9]; Rate 0.0620 kg/ha
  Preemergence herbicidal rating CASOB: 0.5
[9]; Rate 0.1250 kg/ha
  Preemergence herbicidal rating CASOB: 0.5
[9]; Rate 0.2500 kg/ha
  Preemergence herbicidal rating CASOB: 0.0
[10]; Rate 0.0620 kg/ha
  Preemergence herbicidal rating CHEAL: 9.0
[10]; Rate 0.1250 kg/ha
  Preemergence herbicidal rating CHEAL: 9.0
[10]; Rate 0.2500 kg/ha
  Preemergence herbicidal rating CHEAL: 9.0
[11]; Rate 0.0620 kg/ha
  Preemergence herbicidal rating GALAP: 0.0
[11]; Rate 0.1250 kg/ha
  Preemergence herbicidal rating GALAP: 0.0
[11]; Rate 0.2500 kg/ha
  Preemergence herbicidal rating GALAP: 3.0
[12]; Rate 0.0620 kg/ha
  Preemergence herbicidal rating ECHCG: 1.0
[12]; Rate 0.1250 kg/ha
  Preemergence herbicidal rating ECHCG: 5.5
[12]; Rate 0.2500 kg/ha
  Preemergence herbicidal rating ECHCG: 8.5
[13]; Rate 0.0620 kg/ha
  Preemergence herbicidal rating SETVI: 5.0
[13]; Rate 0.1250 kg/ha
  Preemergence herbicidal rating SETVI: 7.5
[13]; Rate 0.2500 kg/ha
  Preemergence herbicidal rating SETVI: 9.0
[14]; Rate 0.0620 kg/ha
  Preemergence herbicidal rating ZEAMX: 3.5
[14]; Rate 0.1250 kg/ha
  Preemergence herbicidal rating ZEAMX: 6.0
[14]; Rate 0.2500 kg/ha
  Preemergence herbicidal rating ZEAMX: 6.5
[15]; rate 0.0320 kg/ha
  herbicidal rating, CYPSE: 0.0
[15]; rate 0.1250 kg/ha
  herbicidal rating, CYPSE: 0.0
[16]; rate 0.0320 kg/ha
  herbicidal rating, MOOVA: 8.0
[16]; rate 0.1250 kg/ha
  herbicidal rating, MOOVA: 9.0
[17]; rate 0.0320 kg/ha
  herbicidal rating, ORYSAT (rice tolerance): 3.0
[17]; rate 0.1250 kg/ha
  herbicidal rating, ORYSAT (rice tolerance): 4.0

## CCOc1cc(OCC)nc(-c2nsc3ccc(-n4c(=O)cc(C(F)(F)F)n(C)c4=O)cc23)n1 [Compound 43, 3-[3-(4,6-diethoxy-2-pyrimidinyl)-1,2-benzisothiazol-5-yl]-1-methyl-6-(trifluoromethyl)uracil]
[1]; rate 0.0320 kg/ha
  Postemergence herbicidal rating, ABUTH: 9.0
[1]; rate 0.0620 kg/ha
  Postemergence herbicidal rating, ABUTH: 9.0
[2]; rate 0.0320 kg/ha
  Postemergence herbicidal rating, GALAP: 4.0
[2]; rate 0.0620 kg/ha
  Postemergence herbicidal rating, GALAP: 4.0
[3]; rate 0.0320 kg/ha
  Postemergence herbicidal rating, IPOHE: 9.0
[3]; rate 0.0620 kg/ha
  Postemergence herbicidal rating, IPOHE: 9.0
[4]; rate 0.0320 kg/ha
  Postemergence herbicidal rating, SETVI: 5.0
[4]; rate 0.0620 kg/ha
  Postemergence herbicidal rating, SETVI: 4.0
[5]; rate 0.0320 kg/ha
  Postemergence herbicidal rating, GLXMAW: 6.0
[5]; rate 0.0620 kg/ha
  Postemergence herbicidal rating, GLXMAW: 6.0
[6]; rate 0.0320 kg/ha
  Postemergence herbicidal rating, TRZAWR: 2.5
[6]; rate 0.0620 kg/ha
  Postemergence herbicidal rating, TRZAWR: 3.5
[7]; Rate 0.0620 kg/ha
  Preemergence herbicidal rating ABUTH: 4.0
[7]; Rate 0.1250 kg/ha
  Preemergence herbicidal rating ABUTH: 9.0
[7]; Rate 0.2500 kg/ha
  Preemergence herbicidal rating ABUTH: 9.0
[8]; Rate 0.0620 kg/ha
  Preemergence herbicidal rating AMBEL: 0.0
[8]; Rate 0.1250 kg/ha
  Preemergence herbicidal rating AMBEL: 1.0
[8]; Rate 0.2500 kg/ha
  Preemergence herbicidal rating AMBEL: 7.0
[9]; Rate 0.0620 kg/ha
  Preemergence herbicidal rating CASOB: 0.0
[9]; Rate 0.1250 kg/ha
  Preemergence herbicidal rating CASOB: 0.0
[9]; Rate 0.2500 kg/ha
  Preemergence herbicidal rating CASOB: 1.0
[10]; Rate 0.0620 kg/ha
  Preemergence herbicidal rating CHEAL: 9.0
[10]; Rate 0.1250 kg/ha
  Preemergence herbicidal rating CHEAL: 9.0
[10]; Rate 0.2500 kg/ha
  Preemergence herbicidal rating CHEAL: 9.0
[11]; Rate 0.0620 kg/ha
  Preemergence herbicidal rating GALAP: 1.0
[11]; Rate 0.1250 kg/ha
  Preemergence herbicidal rating GALAP: 4.0
[11]; Rate 0.2500 kg/ha
  Preemergence herbicidal rating GALAP: 5.0
[12]; Rate 0.0620 kg/ha
  Preemergence herbicidal rating ECHCG: 0.0
[12]; Rate 0.1250 kg/ha
  Preemergence herbicidal rating ECHCG: 0.0
[12]; Rate 0.2500 kg/ha
  Preemergence herbicidal rating ECHCG: 3.0
[13]; Rate 0.0620 kg/ha
  Preemergence herbicidal rating SETVI: 9.0
[13]; Rate 0.1250 kg/ha
  Preemergence herbicidal rating SETVI: 9.0
[13]; Rate 0.2500 kg/ha
  Preemergence herbicidal rating SETVI: 9.0
[14]; Rate 0.0620 kg/ha
  Preemergence herbicidal rating ZEAMX: 2.0
[14]; Rate 0.1250 kg/ha
  Preemergence herbicidal rating ZEAMX: 2.0
[14]; Rate 0.2500 kg/ha
  Preemergence herbicidal rating ZEAMX: 6.0
[15]; rate 0.0320 kg/ha
  herbicidal rating, CYPSE: 0.0
[15]; rate 0.1250 kg/ha
  herbicidal rating, CYPSE: 0.0
[16]; rate 0.0320 kg/ha
  herbicidal rating, MOOVA: 4.0
[16]; rate 0.1250 kg/ha
  herbicidal rating, MOOVA: 6.0
[17]; rate 0.0320 kg/ha
  herbicidal rating, ORYSAT (rice tolerance): 0.0
[17]; rate 0.1250 kg/ha
  herbicidal rating, ORYSAT (rice tolerance): 2.0
